Results taken from patent US5734057A, “HIV protease inhibitors and intermediates” (Eli Lilly and Company, priority 1996, dated 1998).
Like-named read-outs stand apart in the source and are kept apart here.

Assays:
[1] = tested on: HIV; assay: Antiviral cell culture assay (XTT viability of HIV-infected cells); type: cell-based
Description: As noted above, the compounds of formula (I) are useful as HIV protease inhibitors and for preparing HIV protease inhibitors. These compounds may be assayed using two assays: (1) an enzyme inhibition assay, and (2) an antiviral cell culture assay.
In addition, the compounds described in the present application may be tested using an antiviral cell culture assay as described in Weislow, O. S., J. of National Cancer Institute, 81(8), pages 577-586 (Apr. 19, 1989) herein incorporated by reference.
This assay compares the viability of HIV-infected cells in a cell culture medium relative to the viability of such cells in the presence of a test compound. The concentration of test compound necessary to inhibit 90% of the virus is then measured using the viability of the cells as an indicator of viral inhibition. This assay is carried out using cell lines that are sensitive to the lyric effects of HIV infection.
Specifically, this assay utilizes the metabolic reduction of a tetrazolium reagent, 2,3-bis[2-methoxy-4-nitro-5-sulfophenyl]-5-[(phenylamino carbonyl]-2H-tetrazolium hydroxide (XTT). In the presence of a viable cell, the tetrazolium reagent, XTT, ms reduced to provide XTT formazan which may be quantified using colorimetric determination (at 450 nm). The intensity of the chromogenic signal is directly proportional to the concentration of the XTT formazan, thus providing a measure of the quantity of viable cells.
The compounds prepared in Examples 9 and 10, above, were tested using this assay.

[2] = target: T1, HIV-1 protease (Human immunodeficiency virus type 1 group M subtype B, UniProt P04585); assay: biochemical; settings: for IC50: read-out: Inhibitory Activity, Fluorescence Assay IC50 (converted)
T1 construct: HIV-1 Protease
Description: These compounds may be assayed using two assays: (1) an enzyme inhibition assay, and (2) an antiviral cell culture assay.
This assay is described in detail in published European Patent Application (EPA) 0 526 009, herein incorporated by reference. Using this assay, a number of the compounds, prepared above, were assayed for HIV protease inhibitory activity.
The assay is unable to test compounds at less than a concentration of 0.16 ng/mL.

[3] = Human immunodeficiency virus 1, concentration that inhibits 90%
[4] = concentration that inhibits 50% of the enzyme, assay limit 0.16 ng/mL

SMILES | IC90 [1, 3] | IC50 [2, 4] | IC50 [2] | IC90 ([1]; concentration that inhibits 90%) | inhibition at 0.00016 µg/mL ([2]; at 0.16 ng/mL, read-out: % inhibition at stated concentration (IC74 (0.16)))
CC(C)(C)NC(=O)[C@@H]1C[C@@H]2SCC[C@@H]2CN1C[C@@H](O)[C@H](Cc1ccccc1)NC(=O)OCc1ccccc1 [Example 5, N-t-Butyl-octahydro-5[2R-hydroxy-4-phenyl-3S-N(benzyloxycarbonyl)amino-butyl]-(3aR,7aS)-thieno[3,2-c]pyridine-(6S)-carboxamide] | 2000 nM | 6.3 nM |  |  | 
Cc1c(O)cccc1C(=O)N[C@@H](CSc1ccccc1)[C@H](O)CN1C[C@H]2CCS[C@H]2C[C@H]1C(=O)NC(C)(C)C [Example 9, N-t-Butyl-octahydro-5[2R-hydroxy-3R-N(2'-methyl-3'-hydroxyphenylcarbonyl)amino-4-phenylthio-butyl]-(3aR,7aS)-thieno[3,2-c] pyridine-(6S)-carboxamide] | 17 nM | 0.315 nM |  |  | 
CC(C)(C)NC(=O)[C@@H]1C[C@@H]2SCC[C@@H]2CN1C[C@@H](O)[C@H](CSc1ccccc1)NC(=O)OCc1ccccc1 [Example 7, N-t-Butyl-octahydro-5[2R-hydroxy-4-thiophenyl-3R-N(benzyloxycarbonyl)amino-butyl]-(3aR,7aS)-thieno[3,2-c] pyridine-(6S)-carboxamide] |  |  | 3.32 nM |  | 
Cc1c(O)cccc1C(=O)N[C@@H](CSc1ccccc1)[C@H](O)CN1C[C@H]2CCS[C@H]2C[C@H]1C(=O)NC(C)(C)C [Example 10, N-t-Butyl-octahydro-5[2R-hydroxy-3R-N(2'-methyl-3'-hydroxyphenylcarbonyl)amino-4-phenylthio-butyl]-(3aR,7aS)-thieno[3,2-c] pyridine-(6S)-carboxamide methanesulfonate] |  |  |  | 10 nM | 74%
